Laboratory results taken from ChEMBL document CHEMBL1287753, “Synthesis of all-cis 2,5-imino-2,5-dideoxy-fucitol and its evaluation as a potent fucosidase and galactosidase inhibitor” (Bioorg Med Chem Lett, 2010).

Legend:
[1] = Inhibition of alpha-fucosidase
[2] = Inhibition of alpha-mannosidase
[3] = Inhibition of alpha-galactosidase
[4] = Inhibition of alpha-glucosidase
[5] = Inhibition of beta-glucosidase
[6] = Inhibition of beta-galactosidase
[7] = Inhibition of beta-mannosidase

SMILES	Ki ([1]; read-out: Ki) [µM]	IC50 [3] [mM]	Ki [4]	IC50 [5] [µM]	IC50 [2] [µM]	further results
C[C@@H]1N[C@H](CO)[C@H](O)[C@@H]1O	0.0049					
C[C@@H]1N[C@@H](CCO)[C@H](O)[C@@H]1O	0.008	> 1		> 1000	> 1000	IC50 [6]: > 1000 µM; IC50 [7]: > 1 mM; IC50 [4]: > 100 µM
OC[C@H]1NC[C@@H](O)[C@H]1O		0.0002	Not Active	350	14	IC50 [6]: 140 µM; Ki [1]: Not Active
C[C@@H]1NC[C@H](O)[C@@H]1O	0.05					

The next lines start with results.

Ki ([1]; read-out: Ki) [µM]	IC50 [3] [mM]	Ki [4]	IC50 [5] [µM]	IC50 [2] [µM]	SMILES	further results
1000	2	Not Active	100		C[C@H]1N[C@H](CO)[C@@H](O)[C@H]1O	Ki [2]: Not Active
0.08					C[C@@H]1N[C@@H](CO)[C@H](O)[C@@H]1O	
9		Not Active	1200		C[C@H]1N[C@H](CO)[C@H](O)[C@@H]1O	Ki ([2]; read-out: Ki): 53 µM; Ki [3]: 5 µM
0.015			> 1	> 1000	C[C@H]1N[C@@H](CO)[C@@H](O)[C@H]1O (racemic)	Ki [6]: 53 µM; IC50 [7]: > 1 mM; Ki [3]: 3 µM; IC50 [4]: > 100 µM
